{
  "source": "patent US6486160B1",
  "about": "“Pharmaceutical composition for modulating immunity” (Toray Industries, Inc., priority 2001, dated 2002)",
  "assay_type_in_all_cases": "in vivo, human",
  "key": {"CRP": {"system": "CRP", "assay": "CRP value by latex agglutination assay in a patient given Pimobendan orally", "experimental": "(§1) 2-(4-Methoxyphenyl)-5-(5-methyl-3-oxo-4,5-dihydro-2H-6-pyridazinyl)-benzimidazole (hereunder referred to as imobendan was orally administered to a patient who suffered from heart failure while malignant articular rheumatism set in as a complication and the CRP value thereof was determined with the elapse of time.\nThe CRP value was determined by the latex agglutination assay disclosed in Senju Osamu, et al.: J. Clin. Lab. Immunol. 19:99-103(1986) according to a method identical to that disclosed in Claus David R. et al.: J. Lab. Clin. Med. 87:120-128(1976).\nWhen Pimobendan was administered to the patient in a dose of 1.25 mg, the CRP value thereof was reduced and therefore, the compound was administered in a dose of 1.25 mg twice a day on and after the next day (this was defined to be the day at which the administration was initiated).\n(§2) Thus, the administration of Pimobendan was discontinued. Thereafter, Pimobendan was again administered to the patient in a dose of 1.25 mg twice a day to confirm the effect of the drug to reduce the CRP value."}, "[1]": {"system": "inflammation due to the malignant articular rheumatism", "assay": "Inflammation due to malignant articular rheumatism in the patient", "conditions": "re-administration, 1.25 mg twice a day", "experimental": "as §1, §2"}, "heart function": {"system": "heart function", "assay": "Echocardiography of the patient", "conditions": "patient with heart failure, 1.25 mg twice a day"}},
  "data": [
    {"smiles": "COc1ccc(-c2nc3ccc(C4=NNC(=O)CC4C)cc3[nH]2)cc1", "note": "(centres unmarked) [Pimobendan, 2-(4-Methoxyphenyl)-5-(5-methyl-3-oxo-4,5-dihydro-2H-6-pyridazinyl)-benzimidazole]", "values": [
      {"measurement": "CRP value (change)", "setting": "CRP; after first dose of 1.25 mg, value prior to administration 4.7 mg/dl", "result": "reduced"},
      {"measurement": "CRP Value", "setting": "CRP; day 89, in parentheses: day at which Pimobendan was not administered (discontinued)", "result": "(5.0) mg/dl"},
      {"measurement": "CRP Value", "setting": "CRP; day 90, in parentheses: day at which Pimobendan was not administered (discontinued)", "result": "(2.7) mg/dl"},
      {"measurement": "CRP Value", "setting": "CRP; day 97, in parentheses: day at which Pimobendan was not administered (discontinued)", "result": "(2.4) mg/dl"},
      {"measurement": "CRP Value", "setting": "CRP; day 105, in parentheses: day at which Pimobendan was not administered (discontinued)", "result": "(3.6) mg/dl"},
      {"measurement": "CRP Value", "setting": "CRP; day 113, in parentheses: day at which Pimobendan was not administered (discontinued)", "result": "(3.2) mg/dl"},
      {"measurement": "CRP Value", "setting": "CRP; day 119, in parentheses: day at which Pimobendan was not administered (discontinued)", "result": "(2.9) mg/dl"},
      {"measurement": "CRP Value", "setting": "CRP; patient, again 1.25 mg twice a day, day 126 after initiating the administration", "result": 3.0, "unit": "mg/dL"},
      {"measurement": "CRP Value", "setting": "CRP; patient, again 1.25 mg twice a day, day 127 after initiating the administration", "result": 4.3, "unit": "mg/dL"},
      {"measurement": "CRP Value", "setting": "CRP; patient, again 1.25 mg twice a day, day 130 after initiating the administration", "result": 3.8, "unit": "mg/dL"},
      {"measurement": "CRP Value", "setting": "CRP; patient, again 1.25 mg twice a day, day 132 after initiating the administration", "result": 2.1, "unit": "mg/dL"},
      {"measurement": "CRP Value", "setting": "CRP; patient, again 1.25 mg twice a day, day 137 after initiating the administration", "result": 1.3, "unit": "mg/dL"},
      {"measurement": "CRP Value", "setting": "CRP; patient, oral 1.25 mg twice a day, day 12 after initiating the administration", "result": 1.7, "unit": "mg/dL"},
      {"measurement": "CRP Value", "setting": "CRP; patient, oral 1.25 mg twice a day, day 28 after initiating the administration", "result": 6.1, "unit": "mg/dL"},
      {"measurement": "CRP Value", "setting": "CRP; patient, oral 1.25 mg twice a day, day 61 after initiating the administration", "result": 3.0, "unit": "mg/dL"},
      {"measurement": "CRP Value", "setting": "CRP; patient, oral 1.25 mg twice a day, day 71 after initiating the administration", "result": 3.3, "unit": "mg/dL"},
      {"measurement": "CRP value (change)", "setting": "CRP; re-administration, 1.25 mg twice a day after discontinuation", "result": "again reduced"},
      {"measurement": "CRP value (overall conclusion from Table 1)", "setting": "CRP; whole test period", "result": "reduce the CRP value to a clinically satisfactory level"},
      {"measurement": "inflammation due to the malignant articular rheumatism", "setting": "[1]", "result": "recovered"},
      {"measurement": "heart function", "setting": "heart function", "result": "improved"}
    ]}
  ]
}
